Columns and labels:
[1] = test system: LPS-IFN—induced nitrite production; assay: MIF-dependent nitrite production in peritoneal macrophages (Greiss assay); format: cell-based, mouse; conditions: for inhibition at 100 µM: Mus musculus, Peritoneal macrophage, compound 100 μM, LPS 10 ng/ml + interferon-γ 10 units/ml, 24 h, read-out: % Inhibition of nitrite (± SD)
Protocol: MIF is able to induce or facilitate the expression and release of a wide variety of pro-inflammatory and/or destructive molecules, including the release of macrophage nitric oxide (NO) ^(20). A compound with the ability to inhibit the cytokine or biological function of MIF might be expected to inhibit the activation of NO production by macrophages.
C57BL6/J male mice were injected intraperitoneally with 2 ml of thioglycolate. Three days later peritoneal macrophages were collected by lavaging the peritoneum with 3 ml of cold Hank's buffered saline solution. Cells from several mice were pooled, washed and re-suspended in DMEM supplemented with 5% FCS. Cells were plated in 96 well plastic tissue culture plates at 1×10^5 cells/well. Cells were treated in triplicate wells with compound or vehicle for 1 hour in a 5% CO2 incubator at 37° C. Cells were then treated with LPS (10 ng/ml) and recombinant human interferon-γ (10 units/ml) and incubated for 24 hours. After 24 hours, 50 μl of supernatant from each well was carefully removed and transferred to ELISA plates. The production of NO was measured by analysing the concentration of nitrite in culture supernatants, as measured by the Greiss assay ^(21). The results were calculated as the percentage inhibition of nitrite concentration in compound-treated cell culture supernatants, compared to that of vehicle-treated cells.

[2] = test system: MIF-induced proliferation of mouse NIH 3T3 fibroblasts; assay: MIF-induced proliferation in mouse fibroblasts (3H-thymidine incorporation); format: cell-based; conditions: Compound (10×^10−6M) + MIF 50 ng/ml; nil 1087, MIF + vehicle 1452
Protocol: The activity of compounds was studied in a bioassay utilising MIF-induced proliferation of mouse NIH 3T3 fibroblasts. […] NIH 3T3 cells were propagated in DMEM/10% foetal calf serum (FCS). Prior to experimentation, cells were seeded at 10^4 cells/well in 96-well plates in DMEM/10% FCS for 18 hours. The media was then replaced with DMEM/0.1% FCS and the cells incubated for a further 18 hr. At time point −1 hr, culture medium was replaced with DMEM/0.1% FCS and cells were treated with a compound of the invention at a final concentration of 10 μM or vehicle. At time point zero, cells were treated with MIF at a final concentration of 50 ng/ml. At time point 6 hr the cells were pulsed with 1 µCi/well of ^3H-thymidine. At time point 24 hours, cells were harvested using a semi-automated cell harvester. The radioactivity incorporated into DNA was determined by liquid scintillation counting, with results expressed as ^3H-thymidine incorporation (cpm). Statistical significance was analysed using the Mann-Whitney test.

[3] = test system: LPS-induced serum IL-1, IL-6, and TNF; assay: Mouse endotoxic shock model (serum cytokines by ELISA); format: in vivo; conditions: for effect on serum IL-1: 5 mg/kg; for IL-1 (pg/ml), serum: 5 mg/kg i.p. 24 h and 1 h before LPS 5 mg/kg, saline 175 ± 43, LPS plus vehicle 428 ± 168; for IL-1 (pg/ml), serum / IL-6 (ng/ml), serum / TNF (pg/ml), serum: 1.5 h after LPS; for effect on serum IL-6 / effect on serum TNF: 15 mg/kg; for IL-6 (ng/ml), serum / TNF (pg/ml), serum: 15 mg/kg i.p. 24 h and 1 h before LPS 5 mg/kg; for IL-6 (ng/ml), serum: saline 4 ± 4, LPS plus vehicle 118 ± 30; for TNF (pg/ml), serum: saline 189 ± 69, LPS plus vehicle 2022 ± 1245
From the text: The activity of compounds was studied in the murine endotoxic shock model. In this model, features of shock, characterised by increased serum levels of cytokines such as IL-1, tumor necrosis factor (TNF), and interleukin 6 (IL-6), are induced by the injection of bacterial lipoloysaccharide (LPS). The in vivo production of IL-1, IL-6, and TNF in response to endotoxin has been previously shown to be dependent on MIF ^(23).
Groups of four mice were used in each experiment. Endotoxaemia was induced by intra-peritoneal injection of lipopolysaccharide (LPS) (5 mg/kg) in 300 μl saline. Mice injected with saline alone were used as a control group. Treatments were administered by intra-peritoneal injection at intervals 24 hours and 1 hour before intra-peritoneal LPS injection. Mice were treated with saline, compounds dissolved in DMSO/saline vehicle at a dose of 5-15 mg/kg body weight, or vehicle (containing matching concentrations of DMSO).
After 1.5 hours mice were humanely killed by CO2 inhalation then neck dislocation. Serum was obtained from blood obtained by cardiac puncture prior to death and measured for the concentration of cytokines including IL-1, TNF, and/or IL-6, by ELISA. Statistical significance was analysed using the Mann-Whitney test.

[4] = test system: IL-1 induced COX-2 expression; assay: Combination of MIF-antagonist with glucocorticoid: IL-1 induced fibroblast COX-2 expression; format: cell-based, human; conditions: IL-1 + dexamethasone 1 nM alone; control 0.7400, IL-1 49.37
Protocol: S112 human dermal fibroblasts were propagated in RPMI/10% foetal calf serum (FCS). Prior to experimentation, cells were seeded at 2×10^5 cells/ml in RPMI/0.1% BSA for 18 hours. Cells were treated with compound at 1-100 μM and 30 minutes later with recombinant human IL-1 (0.1 ng/ml). After 6 hours, cells were collected and intracellular COX-2 protein determined by permeabilisation flow cytometry, as described by Sampey et al ^(18). Cells permeabilised with 0.2% saponin were sequentially labelled with a mouse anti-human COX-2 monoclonal antibody and with sheep-anti-mouse F(ab)2 fragment labelled with fluoroscein isothiocyanate. Cellular fluorescence was determined using a flow cytometer. At least 5000 events were counted for each reading, each of which was performed in duplicate, and the results expressed in mean fluorescence intensity (MFI) after subtraction of negative control-labelled cell fluorescence.
The above in vitro assay (Biological Example 2) for analysing the effect of MIF antagonists on IL-1 induced COX-2 expression was performed using 2-(2-hydroxyethoxy)-2-(4′-hydroxy-3′-methylphenyl)-1,3-dioxolane (Compound 1) (50 μM), dexamethasone (1 nM) or a combination of dexamethasone (1 nM) and Compound 1 (50 μM). COX-2 expression was expressed as the mean fluorescence intensity (MFI) as measured by flow cytometry, after deduction of the MFI for control-labelled samples, as described by Sampey et al. ^(18).

SMILES	inhibition at 100 µM [1] [%]	Mean cpm (3H-thymidine incorporation) [2] [cpm]	effect on serum IL-1 [3]	IL-1 (pg/ml), serum [3] [pg/mL]	effect on serum IL-6 [3]	effect on serum TNF [3]	IL-6 (ng/ml), serum [3] [ng/mL]	TNF (pg/ml), serum [3] [pg/mL]	melting point [°C]	also measured
Cc1ccc(-c2cnn(CCC(C)C)c2)cc1 [Compound 13, 1-(3-Methylbutyl)-4-(4-methylphenyl)-1H-pyrazole]	91 ± 8	1015	inhibitory effect	305 ± 51	inhibitory effect	inhibitory effect	92 ± 7	1067 ± 191		inhibition of LPS-IFN—induced nitrite production ([1]; 0.5-100 μM, FIG. 8): dose-responsive inhibition
Brc1ccc(C2NCCS2)cc1 (centres unmarked) [Compound 4, 2-(4-Bromophenyl)-1,3-thiazolane]	22 ± 1								107	
C[C@@H]1C[C@H]2[C@@H]3CCC4=CC(=O)C=C[C@]4(C)[C@@]3(F)[C@@H](O)C[C@]2(C)[C@@]1(O)C(=O)CO [DEX, dexamethasone, reference compound]										Mean COX-2 expression (MFI) [4]: 15.13 MFI
COc1ccc(C2NCCS2)cc1 (centres unmarked) [Compound 5, 2-(4-Methoxyphenyl)-1,3-thiazolane]	22 ± 2								94 to 95	
COc1ccc(C2NCCS2)cc1OC (centres unmarked) [Compound 8, 2-(3,4-Dimethoxyphenyl)-1,3-thiazolane]		1238							54 to 56	
CCCCCCC1(c2ccc(C)cc2)SCCS1 [Compound 17, 2-Hexyl-2-(4-methylphenyl)-1,3-dithiolane]	69 ± 2	933.2								inhibition of LPS-induced serum IL-6 ([3]; 5 and 15 mg/kg, FIG. 10b): marked inhibition; inhibition of LPS-induced serum TNF ([3]; 5 and 15 mg/kg, FIG. 10c): marked inhibition; inhibition of LPS-induced serum IL-1 ([3]; 5 and 15 mg/kg, statistically significant P<0.05, FIG. 10a): marked inhibition
c1csc(-c2ccc(C3OCCS3)cc2)c1 (centres unmarked) [Compound 33, 2-(4-Thien-2-ylphenyl)-1,3-oxathiolane]	47 ± 4		inhibitory effect	360 ± 72	inhibitory effect	inhibitory effect	95 ± 14	1152 ± 317		
COc1cc(C2NCCS2)ccc1O (centres unmarked) [Compound 7, 2-(4-Hydroxy-3-methoxyphenyl)-1,3-thiazolane]	15 ± 1	1281							158 to 161	
COc1ccc(-c2cnn(CCC(C)C)c2)cc1 [Compound 12, 4-(4-Methoxyphenyl)-1-(3-methylbutyl)-1H-pyrazole]	78 ± 9		inhibitory effect	286 ± 102	inhibitory effect	inhibitory effect	80 ± 16	1636 ± 468		
